Here are results for 8 compounds from ChEMBL document CHEMBL1201862, “PubChem BioAssay data set” (2004).

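All cell lines were grown in 96-well plates and treated with compound for 48 hours. GI50 = concentration required for 50% inhibition of growth.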 Active and inactive are the calls of the source. Cut-off read from the data, not from the text of the source: active = GI50 up to about 1.1 µM and inactive = higher.

Holding throughout (experiment): growth of human tumour cells (NCI), 48 h
For experiment [1], the system named is A549.
For experiment [2], the system named is HCT-116.
Experiment [3] concerns SNB-19.
For experiment [4], the system named is NCI-H522.
In experiment [5] the test system is MCF7.
Experiment [6] relates to HOP-92.
In experiment [7] the test system is SF-539.
For experiment [8], the system named is TK-10.
Experiment [9] relates to SN12C.
In experiment [10] the test system is SF-295.
The subject of experiment [11] is KM12.
Experiment [12] relates to HCT-15.
Experiment [13] relates to Hs-578T.
Experiment [14] relates to IGROV-1.
Experiment [15] relates to ACHN.
The test system of experiment [16] is NCI/ADR-RES.
Experiment [17] has as its system CAKI-1.
Experiment [18] has as its system SW-620.
Experiment [19] concerns SK-MEL-28.
Experiment [20] relates to RXF 393.

Take `Nc1ccc2ccc(N3CCNCC3)nc2n1`: the GI50 is > 100 µM (inactive) in [1]; 43.2 µM (inactive) in experiment [2]; 42.2 µM (inactive) in experiment [3]; 45.3 µM (inactive) in experiment [4]; 70 µM (inactive) in experiment [5]; 46 µM (inactive) in [6]. Further, the GI50 is 71.3 µM (inactive) in experiment [7]; > 100 µM (inactive) in [8]; 51.2 µM (inactive) in experiment [9]; 39.9 µM (inactive) in experiment [10]; 48.2 µM (inactive) in experiment [11]; 76.6 µM in experiment [12]. The GI50 in [13] was 47.5 µM (inactive); in experiment [14], 19.5 µM (inactive); in experiment [15], 74.8 µM (inactive); in experiment [16] it was > 100 µM (inactive); in [17] it was > 100 µM (inactive); in [18], 47.6 µM (inactive). The GI50 in experiment [19] is > 100 µM (inactive).

With `COC(=O)C(CCCCN)NC(=O)C(CCCCN)NC(=O)C(CCCCN)NC(C)=O.Cc1ccc(C(=O)Nc2ccc(S(=O)(=O)O)c3cc(S(=O)(=O)O)cc(S(=O)(=O)O)c23)cc1NC(=O)c1cccc(NC(=O)Nc2cccc(C(=O)Nc3cc(C(=O)Nc4ccc(S(=O)(=O)O)c5cc(S(=O)(=O)O)cc(S(=O)(=O)O)c45)ccc3C)c2)c1`, the GI50 in experiment [1], in experiment [2], in experiment [3], in experiment [5], in [6] and in experiment [7] was > 50 µM (inactive) throughout. In addition, the GI50 is > 50 µM (inactive) in experiment [9]; > 50 µM (inactive) in experiment [20]; > 50 µM (inactive) in experiment [10]; > 50 µM (inactive) in [11]; 18.6 µM in [12]; > 50 µM (inactive) in experiment [13]. Besides, the GI50 in experiment [15], in [16], in experiment [17], in experiment [18] and in experiment [19] was > 50 µM (inactive) in each case.

As to `CCOC(=O)c1c(-c2ccc(OC)cc2)c(C#N)c(=S)n(C2OC(COC(C)=O)C(OC(C)=O)C(OC(C)=O)C2OC(C)=O)c1-c1ccccc1` (stereo not drawn), the GI50 was > 100 µM (inactive) in [1]; > 100 µM (inactive) in experiment [2]; > 100 µM (inactive) in experiment [3]; > 100 µM (inactive) in [5]; 17.8 µM (inactive) in experiment [6]; > 100 µM (inactive) in experiment [7]. The GI50 in [8] was > 100 µM (inactive); in experiment [9], > 100 µM (inactive); in [20] it was > 100 µM (inactive); in experiment [10], > 100 µM (inactive); in [11], > 100 µM (inactive); in [12], more than 100 µM. The GI50 is 29.9 µM (inactive) in experiment [13]; > 100 µM (inactive) in experiment [14]; > 100 µM (inactive) in experiment [15]; > 100 µM (inactive) in experiment [16]; > 100 µM (inactive) in experiment [17]; > 100 µM (inactive) in experiment [18]. Further, in experiment [19], the GI50 is > 100 µM (inactive).

`Cc1c(CCN2CCOCC2)c(N2CCOCC2)n2c(nc3ccccc32)c1C#N`: the GI50 in experiment [1], in experiment [2], in experiment [3], in experiment [5], in experiment [6] and in [7] was > 10 µM (inactive) throughout. For the same compound, the GI50 is > 10 µM (inactive) in experiment [8]; > 10 µM (inactive) in experiment [9]; > 10 µM (inactive) in experiment [20]; > 10 µM (inactive) in experiment [10]; > 10 µM (inactive) in experiment [11]; more than 10 µM in experiment [12]. For the same compound, the GI50 is 3.77 µM (inactive) in experiment [13]; > 10 µM (inactive) in experiment [14]; > 10 µM (inactive) in [15]; > 10 µM (inactive) in experiment [16]; > 10 µM (inactive) in experiment [17]; > 10 µM (inactive) in experiment [18]. Also, in [19], the GI50 was > 10 µM (inactive).

In the case of `Cc1[nH]c2ncn(Nc3ccccc3)c(=N)c2c1Cc1ccccc1`, the GI50 was 1.48 µM (inactive) in experiment [1]; 0.522 µM (active) in [2]; > 51.3 µM (inactive) in experiment [3]; 5.45 µM (inactive) in experiment [5]; 33.1 µM (inactive) in experiment [6]; > 100 µM (inactive) in experiment [7]. The GI50 in experiment [8] is > 75.9 µM (inactive); in experiment [9] it was > 80.5 µM (inactive); in experiment [20], 30.6 µM (inactive); in experiment [11] it was 5.31 µM (inactive); in [12], 4.34 µM; in experiment [13], 8.28 µM (inactive). The GI50 in experiment [14] was 3.85 µM (inactive); in experiment [15], 4.22 µM (inactive); in experiment [16], 29.6 µM (inactive); in [17] it was 24.4 µM (inactive); in experiment [18], 34.1 µM (inactive).

As for `Cc1cc2[nH]c3c(C#N)c4c(c(=O)n3c2cc1C)CCCC4`, the GI50 is > 100 µM (inactive) in [1]; > 100 µM (inactive) in experiment [2]; 31 µM (inactive) in experiment [3]; > 100 µM (inactive) in [4]; > 100 µM (inactive) in experiment [5]; 87.7 µM (inactive) in experiment [6]. The GI50 is > 100 µM (inactive) in [7]; > 100 µM (inactive) in experiment [8]; > 100 µM (inactive) in experiment [9]; 16 µM (inactive) in [10]; > 100 µM (inactive) in experiment [11]; more than 100 µM in experiment [12]. The GI50 is 86.1 µM (inactive) in [13]; > 100 µM (inactive) in experiment [14]; 72.1 µM (inactive) in [15]; > 100 µM (inactive) in experiment [16]; > 100 µM (inactive) in experiment [17]; > 100 µM (inactive) in [18]. Moreover, the GI50 in [19] is > 100 µM (inactive).

Take `COC(=O)C1=C(O)C(C(=O)OC)[C@]2(O)[C@H](C(=O)OC)[C@H]1C[C@@H](c1ccc(OC)c(OC)c1)[C@H]2C(=O)OC` (stereo partly drawn): the GI50 in experiment [1] is 11.6 µM (inactive); in [2], 21 µM (inactive); in experiment [3], 14.6 µM (inactive); in experiment [5] it was 17.3 µM (inactive); in experiment [6], 21.2 µM (inactive); in experiment [7], 4.78 µM (inactive). The GI50 in experiment [8] was 24.9 µM (inactive); in experiment [9], 28.2 µM (inactive); in [20] it was 14.3 µM (inactive); in experiment [10], 17.9 µM (inactive); in [11], 21.1 µM (inactive); in [12], 14 µM. Moreover, the GI50 is 29.9 µM (inactive) in experiment [13]; 26.1 µM (inactive) in experiment [14]; 25.8 µM (inactive) in experiment [15]; 15.5 µM (inactive) in [16]; 25.8 µM (inactive) in experiment [17]; 15.6 µM (inactive) in [18]. For the same compound, the GI50 in experiment [19] is 19.2 µM (inactive).

As to `CCOP(=O)(OCC)/C(=C/c1ccccc1)CC(C)=O`, the GI50 in [1], in experiment [2], in experiment [3], in experiment [5], in experiment [6] and in experiment [7] was > 100 µM (inactive) throughout. Besides, the GI50 was > 100 µM (inactive) in [8]; > 100 µM (inactive) in experiment [9]; > 100 µM (inactive) in experiment [20]; > 100 µM (inactive) in experiment [10]; > 100 µM (inactive) in [11]; more than 100 µM in experiment [12]. In addition, the GI50 in [13], in experiment [14], in [15], in experiment [16], in experiment [17] and in experiment [18] was > 100 µM (inactive) throughout. The GI50 in [19] is > 100 µM (inactive).
